From BindingDB's records for doi:10.1021/jm070728r (University of Bari, 2007)
pIC50: −log10 of the molar value.

How the values were obtained:
[1] = target: T1, Amine oxidase [flavin-containing] A (Rattus norvegicus, UniProt P21396); assay: MAO Inhibition Assay; settings: pH 7.4; 37 °C
T1 sequence (P21396 whole entry): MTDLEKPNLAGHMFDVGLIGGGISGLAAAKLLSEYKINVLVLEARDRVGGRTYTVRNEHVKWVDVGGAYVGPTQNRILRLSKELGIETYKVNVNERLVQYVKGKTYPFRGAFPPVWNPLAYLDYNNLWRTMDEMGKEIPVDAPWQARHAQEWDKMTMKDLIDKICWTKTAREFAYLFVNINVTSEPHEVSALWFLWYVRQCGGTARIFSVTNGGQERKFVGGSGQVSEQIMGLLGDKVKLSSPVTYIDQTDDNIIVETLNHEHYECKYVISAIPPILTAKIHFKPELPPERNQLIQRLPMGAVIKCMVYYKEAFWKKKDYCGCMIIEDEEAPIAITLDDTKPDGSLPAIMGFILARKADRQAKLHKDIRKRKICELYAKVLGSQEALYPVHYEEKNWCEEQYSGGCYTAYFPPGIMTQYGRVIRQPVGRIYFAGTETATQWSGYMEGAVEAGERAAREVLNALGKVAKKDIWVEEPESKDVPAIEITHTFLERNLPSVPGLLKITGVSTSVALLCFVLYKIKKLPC
Method: (§1) A continuous spectrophotometric assay that monitors the rate of oxidation of the nonselective MAO substrate kynuramine into 4-hydroxyquinoline was used. clorgyline or selegiline was preincubated with the suspension for 5 min to measure MAO-B or MAO-A activity, respectively. […] IC50 values were determined and calculated from a hyperbolic equation. Each assay was performed in triplicate on four to six separate homogenates.

[2] = target: T2, Amine oxidase [flavin-containing] B (Rattus norvegicus, UniProt P19643); assay: MAO Inhibition Assay
T2 sequence (P19643 whole entry): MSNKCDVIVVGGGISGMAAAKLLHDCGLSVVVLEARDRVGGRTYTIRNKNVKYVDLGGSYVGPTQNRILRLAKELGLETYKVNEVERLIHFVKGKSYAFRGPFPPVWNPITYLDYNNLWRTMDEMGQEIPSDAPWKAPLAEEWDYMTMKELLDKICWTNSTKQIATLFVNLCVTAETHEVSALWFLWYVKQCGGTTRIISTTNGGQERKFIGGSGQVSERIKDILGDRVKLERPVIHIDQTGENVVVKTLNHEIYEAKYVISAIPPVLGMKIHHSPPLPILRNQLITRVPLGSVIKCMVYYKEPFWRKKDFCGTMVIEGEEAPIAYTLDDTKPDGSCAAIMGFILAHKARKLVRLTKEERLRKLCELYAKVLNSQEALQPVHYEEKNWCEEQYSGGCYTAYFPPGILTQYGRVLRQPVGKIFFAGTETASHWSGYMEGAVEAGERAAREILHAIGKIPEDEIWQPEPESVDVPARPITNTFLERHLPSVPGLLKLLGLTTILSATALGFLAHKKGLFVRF
Method: as §1

Structure (SMILES) | pIC50 [1] | pIC50 [2]
c1ccc(-c2cc3c(nn2)-c2ccccc2C3)cc1 | < 4.00 | –
c1ccc(-c2nc3cc4ccccc4c-3c[nH]2)cc1 [2-phenyl-9H-indeno[2,1-d]pyrimidine] | 4.78 | 4.89
